The text below walks through data of patent US20220371989A1, “N-ACYL-TYROSINE DERIVATIVES AND USES THEREOF” (Sederma, priority 2019, published 2022).

“Also recorded” adds a separate entry of the source.

What all share (format): cell-based
Experiment [1] has as its system Enterococcus hirae 17446. The experiment can be described thus: microbroth dilution antimicrobial assay, E. hirae 17446. The conditions noted are these: for IC50: Enterococcus hirae 17446, microbroth dilution, 22 h, 37° C., triplicate, read-out: IC50 of N-Acyltyrosines. As to the method:
(§1) To test the proposed structure-activity relationship (SAR), a structural analogue compound (2) of compound (1) was synthesized that lacks an a-methyl substituent, and compound (2) was tested for antimicrobial activity in parallel with compound (1). Analogues (3) and (4) were also synthesized and assayed to further support a potential SAR involving the O-methyl substituent (FIG. 16-21). To thoroughly characterize the anti-Enterococcal activity of compounds (1)-(4), five veterinary clinical isolates from veterinary cases (in addition to VRE EF379) were obtained for this study. All five clinical isolates were classified as vancomycin-susceptible.
(§2) Evaluation of antimicrobial activity and cytotoxicity. The following five Enterococcus spp. were isolated from clinical specimens at the Atlantic Veterinary College (AVC) by the AVC Diagnostic Services Bacteriology Laboratory. Isolates were identified using the Bruker microflex LT MALDI-TOF with MBT Compass version 4.179. The direct colony transfer method was used with the Bruker Matrix HCCA (α-cyano-4-hydroxycinnamic acid) overlay, following manufacturer guidelines. Score values between 2.00 and 3.00 were considered high confidence identifications. The following isolates (with source species) were identified: E. faecium 15337 (feline), E. faecalis 16371 (canine), E. gallinarum 20993 (erinaceine), E. casseliflavus 15984 (equine) and E. hirae 17446 (avine). Antimicrobial activity of 1-4 was evaluated against all five clinical Enterococcus isolates in addition to methicillin-resistant Staphylococcus aureus ATCC 33591 (MRSA), S. warneri ATCC 17917, vancomycin-resistant Enterococcus faecium EF379 (VRE), Pseudomonas aeruginosa ATCC 14210, Proteus vulgaris ATCC 12454 and Candida albicans ATCC 14035. All testing was carried out in triplicate according to the Clinical Laboratory Standards Institute testing standards in a 96-well plate microbroth dilution assay as previously described.^14 Optical density was measured using a Thermo Scientific Varioskan Flash plate reader at 600 nm, recording at time zero and then again after incubation for 22 h (37° C.) to determine percent growth inhibition. Cytotoxicity was evaluated against Vero kidney cell line from African green monkey (Cercopithecus aethiops), MCF7 human breast adenocarcinoma cells (ATCC HTB-22), human breast adenocarcinoma cells (ATCC HTB-26) and HCT-116 human colorectal carcinoma cells (ATCC CCL-247). All assays were carried out as described previously.^14 Fluorescence was measured using a Thermo Scientific Varioskan Flash plate reader at 560/12 excitation, 590 nm emission both at time zero and 4 h after alamarBlue (Invitrogen) addition. For both antimicrobial and cytotoxicity data, growth inhibition was expressed as a percentage and plotted against the logarithm of concentration.

Experiment [2] concerns Enterococcus faecium 15337. Kind of experiment: microbroth dilution antimicrobial assay, E. faecium 15337. As to conditions: for IC50: Enterococcus faecium 15337, microbroth dilution, 22 h, 37° C., triplicate, read-out: IC50 of N-Acyltyrosines. Here is the method:
as §1, §2

Experiment [3] deals with Enterococcus faecalis 16371. The experiment can be described thus: microbroth dilution antimicrobial assay, E. faecalis 16371. As to conditions: for IC50: Enterococcus faecalis 16371, microbroth dilution, 22 h, 37° C., triplicate, read-out: IC50 of N-Acyltyrosines. Here is the method: as §1, §2
The subject of experiment [4] is Enterococcus gallinarum 20993. Kind of experiment: microbroth dilution antimicrobial assay, E. gallinarum 20993. As to conditions: for IC50: Enterococcus gallinarum 20993, microbroth dilution, 22 h, 37° C., triplicate, read-out: IC50 of N-Acyltyrosines. As to the method:
as §1, §2

The test system of experiment [5] is Enterococcus casseliflavus 15984. The experiment can be described thus: microbroth dilution antimicrobial assay, E. casseliflavus 15984. As to conditions: for IC50: Enterococcus casseliflavus 15984, microbroth dilution, 22 h, 37° C., triplicate, read-out: IC50 of N-Acyltyrosines. Here is the method: as §1, §2
Experiment [6] concerns Enterococcus faecium EF379 (VRE). The experiment can be described thus: microbroth dilution antimicrobial assay, E. faecium EF379 (VRE). The conditions noted are these: for IC50: Enterococcus faecium EF379 (VRE), 22 h, 37° C., triplicate, read-out: IC50 of N-Acyltyrosines.
Description: (§3) α-Methylation of N-pamitoyltyrosines confers antimicrobial activity. Compound (1) was initially screened for antimicrobial activity against the following panel of pathogenic bacteria and fungi in Table 1 in microbroth dilution assays: methicillin-resistant Staphylococcus aureus (MRSA), Staphylococcus warneri, vancomycin-resistant Enterococcus faecium (VRE), Pseudomonas aeruginosa, Proteus vulgaris and Candida albicans. […] The inventors were aware of no reports on anti-Staphylococcus activity of N-acyltyrosines or on anti-Enterococcal activity of any N-acylated amino acid; thus, it was hypothesized that the α-methyl substituent of compound (1) may be a key component of the antimicrobial pharmacophore of compound 1, may confer Staphylococcus inhibitory activity to N-acyltyrosines, and/or perhaps may play a role in their Enterococcus activity.
as §1, §2

Experiment [7] relates to Staphylococcus aureus ATCC 33591 (MRSA). Kind of experiment: microbroth dilution antimicrobial assay, S. aureus ATCC 33591 (MRSA). The conditions noted are these: for growth inhibition (in words): S. aureus (MRSA); for growth inhibition (in words) / IC50: microbroth dilution; for IC50: Staphylococcus aureus ATCC 33591 (MRSA), 22 h, 37° C., triplicate, read-out: IC50 of N-Acyltyrosines; for growth at the highest concentration tested (in words): 128 μg/mL.
Description: as §3, §2

For experiment [8], the system named is Staphylococcus warneri ATCC 17917. Kind of experiment: microbroth dilution antimicrobial assay, S. warneri ATCC 17917. The conditions noted are these: for IC50: ATCC17917, Staphylococcus warneri ATCC 17917, 22 h, 37° C., triplicate, read-out: IC50 of N-Acyltyrosines; for IC50 / growth inhibition (in words): microbroth dilution; for growth at the highest concentration tested (in words): 128 μg/mL.
Description: as §3, §2

The subject of experiment [9] is Candida albicans ATCC 14035. Kind of experiment: microbroth dilution antimicrobial assay, Candida albicans ATCC 14035. From the text:
(§4) α-Methylation of N-pamitoyltyrosines confers antimicrobial activity. Compound (1) was initially screened for antimicrobial activity against the following panel of pathogenic bacteria and fungi in Table 1 in microbroth dilution assays: methicillin-resistant Staphylococcus aureus (MRSA), Staphylococcus warneri, vancomycin-resistant Enterococcus faecium (VRE), Pseudomonas aeruginosa, Proteus vulgaris and Candida albicans. […]
(§5) Evaluation of antimicrobial activity and cytotoxicity. […] Antimicrobial activity of 1-4 was evaluated against all five clinical Enterococcus isolates in addition to methicillin-resistant Staphylococcus aureus ATCC 33591 (MRSA), S. warneri ATCC 17917, vancomycin-resistant Enterococcus faecium EF379 (VRE), Pseudomonas aeruginosa ATCC 14210, Proteus vulgaris ATCC 12454 and Candida albicans ATCC 14035. All testing was carried out in triplicate according to the Clinical Laboratory Standards Institute testing standards in a 96-well plate microbroth dilution assay as previously described.^14 Optical density was measured using a Thermo Scientific Varioskan Flash plate reader at 600 nm, recording at time zero and then again after incubation for 22 h (37° C.) to determine percent growth inhibition. […] For both antimicrobial and cytotoxicity data, growth inhibition was expressed as a percentage and plotted against the logarithm of concentration.

Experiment [10] relates to Pseudomonas aeruginosa ATCC 14210. Kind of experiment: microbroth dilution antimicrobial assay, P. aeruginosa ATCC 14210.
Description: as §4, §5

For experiment [11], the system named is Proteus vulgaris ATCC 12454. Kind of experiment: microbroth dilution antimicrobial assay, Proteus vulgaris ATCC 12454.
Description: as §4, §5

Consider `CO[C@H]1/C=C/O[C@@]2(C)Oc3c(C)c(O)c4c(O)c(c(/C=N/N5CCN(C)CC5)c(O)c4c3C2=O)NC(=O)/C(C)=C\C=C\[C@H](C)[C@H](O)[C@@H](C)[C@@H](O)[C@@H](C)[C@H](OC(C)=O)[C@@H]1C` [RIF, reference compound], for which the “IC50 of positive control antibiotic” value was < 0.5 µg/mL in experiment [1] (E. hirae 17446, positive control); > 16 µg/mL in experiment [2] (E. faecium 15337, positive control); > 8 µg/mL in experiment [3] (E. faecalis 16371, positive control); 3 µg/mL in experiment [4] (E. gallinarum 20993, positive control); 0.9 µg/mL in experiment [5] (E. casseliflavus 15984, positive control); 4 µg/mL in [6] (E. faecium EF379, positive control).

`CCCCCCCCCCCCCCCC(=O)N[C@@](C)(Cc1ccc(O)cc1)C(=O)O` [Compound 3, N-Palmitoyl-α-methyl-L-tyrosine]: the IC50 in experiment [1] is 4.6 µM; in experiment [2] it was 9.9 µM; in experiment [3], 9.2 to 18.4 µM; in [7] it was 9.2 to 18.4 µM; in [4], 4.6 µM; in experiment [5], 9 µM. Further, the IC50 in [6] (microbroth dilution) is 5.3 µM; in experiment [8], 9.2 to 18.4 µM. Besides, the “growth inhibition (in words)” value in experiment [7] and in [8] (S. warneri) was “inhibited” each time.

For the compound `CCCCCCCCCCCCCCCC(=O)N[C@@H](Cc1ccc(OC)cc1)C(=O)O` [Compound 2, N-Palmitoyl-O-methyl-L-tyrosine], the IC50 was 3.6 µM in experiment [1]; 10.5 µM in experiment [2]; > 295 µM in experiment [3]; > 295 µM in experiment [7]; 71.5 µM in [4]; 10.7 µM in [5]. Besides, the IC50 in experiment [6] (microbroth dilution) was 13.3 µM; in experiment [8], > 295 µM. Further, the “Enterococcus inhibitory activity (in words)” value in experiment [3] (E. faecalis 16371, FIG. 24 legend) was “inactive”. For the same compound, the “growth at the highest concentration tested (in words)” value in [7] (S. aureus) and in experiment [8] (S. warneri) was “unaffected” throughout.

Regarding `CCCCCCCCCCCCCCCC(=O)N[C@@](C)(Cc1ccc(OC)cc1)C(=O)O` [Compound 1, N-Palmitoyl-α,O-dimethyl-L-tyrosine], the IC50 in [1] is 4.1 µM; in [2] it was 7.2 µM; in experiment [9] (ATCC14035, Candida albicans ATCC 14035, microbroth dilution, read-out: IC50 of N-Acyltyrosines) it was > 286 µM; in experiment [10] (ATCC14210, Pseudomonas aeruginosa ATCC 14210, microbroth dilution, read-out: IC50 of N-Acyltyrosines), > 286 µM; in experiment [3], 7.4 µM; in [7], > 286 µM. For the same compound, the IC50 in experiment [4] was 4 µM; in experiment [5], 3.1 µM; in [6] (microbroth dilution), 1.6 µM; in experiment [11] (ATCC12454, Proteus vulgaris ATCC 12454, microbroth dilution, read-out: IC50 of N-Acyltyrosines), > 286 µM; in [8] it was > 286 µM. Further, the “antimicrobial activity (in words)” value was “no activity was observed” in experiment [9] (fungal pathogen Candida albicans, initial screen); “no activity was observed” in [10] (Gram-negative pathogen Pseudomonas aeruginosa, initial screen); “no activity was observed” in [11] (Gram-negative pathogen Proteus vulgaris, initial screen). Also, the “growth inhibition (in words)” value is “Growth inhibition was observed; also recorded: inhibited” in experiment [7]; “Growth inhibition was observed” in experiment [6] (VRE, initial screen, microbroth dilution); “Growth inhibition was observed” in experiment [8] (S. warneri). Also, the Incomplete growth inhibition in experiment [7] (S. aureus, 8-128 μg/mL (footnote b)) is listed as < 75%; in [8] (S. warneri, from 2-64 μg/mL (footnote b)) it was < 50%. Further, the “concentration at which maximum inhibition was achieved” value in experiment [7] (S. aureus, inhibition incomplete, plateaued at higher concentrations (FIG. 25)) came out at 8 µg/mL.

Regarding `CN[C@H](CC(C)C)C(=O)N[C@H]1C(=O)N[C@@H](CC(N)=O)C(=O)N[C@H]2C(=O)N[C@H]3C(=O)N[C@H](C(=O)N[C@H](C(=O)O)c4cc(O)cc(O)c4-c4cc3ccc4O)[C@H](O)c3ccc(c(Cl)c3)Oc3cc2cc(c3O[C@@H]2O[C@H](CO)[C@@H](O)[C@H](O)[C@H]2O[C@H]2C[C@](C)(N)[C@H](O)[C@H](C)O2)Oc2ccc(cc2Cl)[C@H]1O` [VAN, reference compound], the “IC50 of positive control antibiotic” value in [7] (S. aureus ATCC 33591, positive control) was 2 µg/mL; in [8] (S. warneri, positive control), < 0.125 µg/mL.

In the case of `CCCCCCCCCCCCCCCC(=O)N[C@@H](Cc1ccc(O)cc1)C(=O)O` [Compound 4, N-Palmitoyl-L-tyrosine], the IC50 in experiment [1] was 5.6 µM; in experiment [2], > 305 µM; in experiment [3] it was 77.1 µM; in [7], > 305 µM; in experiment [4] it was 146 µM; in [5] it was 32.1 µM. The IC50 in experiment [6] (microbroth dilution) is 10.7 µM; in experiment [8] it was > 305 µM. For the same compound, the “Enterococcus inhibitory activity (in words)” value in experiment [2] (E. faecium 15337, FIG. 24 legend) is “inactive”. Moreover, the Incomplete growth inhibition in experiment [2] (E. faecium 15337, at all tested concentrations (footnote b)) is < 50. In addition, the “growth at the highest concentration tested (in words)” value in experiment [7] (S. aureus) and in experiment [8] (S. warneri) was “unaffected” in each case.
